The values below come from patent publication US7977343B2, “Adenine derivatives” (Merck Patent Gesellschaft mit beschrankter Haftung, priority 2005, dated 2011).

The target in the assay is T1, Recombinant human HSP90α (Homo sapiens, UniProt P07900).
T1 construct: host or cells: E. coli
In words: HSP90 radioligand filter binding test ([3H]17AAG competition). Conditions: [3H]17AAG 0.08 μM, HSP90 1.5 μg/assay, 22° C., 30 min; read-out: HSP90 inhibition IC50. An excerpt: The binding of geldanamycin or 17-allylamino-17-demethoxygeldanamycin (17AAG) to HSP90 and competitive inhibition thereof can be utilised in order to determine the inhibitory activity of the compounds according to the invention (Carreras et al. 2003, Chiosis et al. 2002).
In the specific case, a radioligand filter binding test is used. The radioligand used here is tritium-labelled 17-allylaminogeldanamycin, [3H]17AAG. This filter binding test allows a targeted search for inhibitors which interfere with the ATP binding site.
Recombinant human HSP90α (E. coli expressed, 95% purity);
[3H]17AAG (17-allylaminogeldanamycin, [allylamino-2,3-^3H. Specific activity: 1.11×10^12 Bq/mmol (Moravek, MT-1717);
HEPES filter buffer (50 mM HEPES, pH 7.0, 5 mM MgCl2, BSA 0.01%) Multiscreen FB (1 μm) filter plate (Millipore, MAFBNOB 50).
The 96-well microtitre filter plates are firstly irrigated and coated with 0.1% of polyethylenimine.
The test is carried out under the following conditions:
Reaction temperature 22° C.
Reaction time: 30 min., shaking at 800 rpm
50 mM HEPES HCl, pH 7.0, 5 mM MgCl2, 0.01% (w/v) BSA
At the end of the reaction, the supernatant in the filter plate is removed by suction with the aid of a vacuum manifold (Multiscreen Separation System, Millipore), and the filter is washed twice.
The filter plates are then measured in a beta counter (Microbeta, Wallac) with scintillator (Microscint 20, Packard).
“% of control” is determined from the “counts per minutes” values and the IC-50 value of a compound is calculated therefrom.
Regarding `Cc1nc(N2CCC[C@@H]2COc2ccccc2F)c2nc[nH]c2n1` [Compound A57, 2-Methyl-6-[(R)-2-(2-fluorophenoxy-methyl)pyrrolidin-1-yl]-9H-purine], the IC50 is 1.5 µM. To `Brc1ccccc1OC[C@H]1CCCN1c1ncnc2[nH]cnc12` [Compound A52, 6-[(R)-2-(2-Bromophenoxymethyl)-pyrrolidin-1-yl]-9H-purine] belongs 20 µM; to `Fc1nc(N2CCC[C@@H]2COc2ccccc2F)c2nc[nH]c2n1` [Compound A47, 2-Fluoro-6-[(R)-2-(2-fluorophenoxy-methyl)pyrrolidin-1-yl]-9H-purine], 0.9 µM; to `O[C@H]1C[C@H](COc2ccccc2)N(c2nc(Cl)nc3[nH]cnc23)C1` [Compound A53, 2-chloro-6-[(2R,4S)-2-phenoxymethyl-4-hydroxypyrrolidin-1-yl]-9H-purine], 30 µM. Under `Cc1nc(N2CCC[C@@H]2COc2ccccc2Cl)c2nc[nH]c2n1` [Compound A58, 2-Methyl-6-[(R)-2-(2-chloro-phenoxymethyl)pyrrolidin-1-yl]-9H-purine] stands 6.3 µM.

For orientation: IC50 means the concentration that gives 50% inhibition.
